Laboratory results from US11155582B2, “Antiviral peptide and use thereof” (priority 2018, dated 2021).
“And” between values parts separate entries of the source, which are not always exact repeats. Equal values may be shown once. Where no end group is shown, it is not given here.

Columns and labels:
[1] = test system: VSV; type: cell-based, Vesicular stomatitis virus (VSV)
[2] = test system: VSV; type: cell-based, Vesicular stomatitis virus (VSV); remark: listed apart in the source

| Substance | Amount of virus in culture supernatant [1] | observation field occupied by a monolayer of living cells [2] [%] |
| --- | --- | --- |
| FFFIIGLIIGLFLVLRVGIHLKKRTLRKNDRKKR-NH2 [Sample 2] | 4.7 Log10 TCID 50/mL and 3.5 Log10 TCID 50/mL |  |
| MAIVGIVLLIVVTFLAIKTKKRTLRKNDRKKR-NH2 [Sample 1] | 4.4 Log10 TCID 50/mL and 5 Log10 TCID 50/mL |  |
| VLAVIIGFVILMFLIKLIGVLKKRTLRKNDRKKR-NH2 [Sample 3] | 4.7 Log10 TCID 50/mL and 4.5 Log10 TCID 50/mL | ≥ 90 |
